# Test results from PubChem BioAssay AID2744 (NMMLSC, 2010).
# Activity calls are given as the source filed them.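 Rule for the calls: active = fitted half-maximal concentration for changing reporter fluorescence at or below a set limit; inactive = the rest.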
# Biological target: Citrate synthase, peroxisomal (Saccharomyces cerevisiae (strain ATCC 204508 / S288c)) (UniProt P08679)
# Experiment: CIT2-GFP expression modulators in yeast, dose response, flow cytometry, MLPCN hits (AID 2744)
# Conditions: S. cerevisiae CIT2-GFP strain, 3 h; for GFP fluorescence, higher = induction: at 33 µM (top of the series)
# Citrate synthase, peroxisomal (Saccharomyces cerevisiae (strain ATCC 204508 / S288c)), sequence (P08679 whole entry, looked up): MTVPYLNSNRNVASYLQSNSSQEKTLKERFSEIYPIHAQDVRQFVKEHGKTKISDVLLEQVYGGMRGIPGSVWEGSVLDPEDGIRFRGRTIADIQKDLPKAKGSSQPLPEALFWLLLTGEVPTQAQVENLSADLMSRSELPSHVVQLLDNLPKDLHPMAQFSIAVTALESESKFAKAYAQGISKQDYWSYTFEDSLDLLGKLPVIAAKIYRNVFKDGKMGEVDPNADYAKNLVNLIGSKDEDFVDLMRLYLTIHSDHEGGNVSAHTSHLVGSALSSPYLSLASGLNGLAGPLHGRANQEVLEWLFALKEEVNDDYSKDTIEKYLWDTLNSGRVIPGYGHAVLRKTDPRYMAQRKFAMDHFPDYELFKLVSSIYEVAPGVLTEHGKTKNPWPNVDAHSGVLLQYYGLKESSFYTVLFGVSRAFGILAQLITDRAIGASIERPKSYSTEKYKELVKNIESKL
SMILES,"GFP fluorescence, higher = induction",EC50 (flow cytometry fluorescence) [µM]
CCCc1ccc(OCC(=O)NNC(=S)NC(=O)c2ccco2)cc1,inactive,
Cc1c(Br)c(=O)oc2c(Br)c(O)c(O)cc12,inactive,
CC(=O)Oc1ccc(N2C(=O)C3C4C=CC(CO)(O4)C3C2=O)cc1 (stereo not drawn),inactive,
O=C(O)c1cccc(S(=O)(=O)Nc2ccc(S(=O)(=O)N3CCOCC3)cc2)c1,inactive,
O=C1NC(=O)N(c2ccccc2)C(=O)/C1=C/c1ccc(Sc2ccccc2)o1,inactive,
O=[N+]([O-])c1cc(F)c2cccnc2c1O,inactive,
COc1cc(/C=C/[N+](=O)[O-])ccc1O,inactive,
O=C1CC(c2ccccc2)=NN1c1nc(-c2ccccc2)cs1,inactive,
Cc1ccc(C(=O)NNC(=S)NC(=O)COc2ccccc2)cc1,inactive,
CS(=O)(=O)N1N=C(c2ccccc2)CC1c1ccc2c(c1)OCO2 (stereo not drawn),inactive,
CCC(C)/C(C)=N/NC(=O)c1ccc(COc2ccc(Cl)c(C)c2)cc1 (stereo not drawn),inactive,
O=C(O)C1Sc2[nH]c(=O)sc2C2c3cc(Br)ccc3OC(=O)C12 (stereo not drawn),inactive,
Cc1ccccc1OCC(=O)NNC(=S)NC(=O)c1ccco1,inactive,
COc1ccc(C(=O)NC(=S)NNC(=O)c2cnccn2)cc1OC,inactive,
COc1ccc(N=Nc2ccc(O)c3ncccc23)cc1,inactive,
O=C1c2ccccc2C(=O)N1OS(=O)(=O)c1ccccc1,inactive,
Nc1nc2ncc(CNc3ccc(C(=O)N[C@@H](CCC(=O)O)C(=O)O)cc3)nc2c(=O)[nH]1,inactive,
COc1cc(/C=C2\C(=O)ON=C2c2ccccc2)cc(Br)c1O,inactive,
Cc1ccc(S(=O)(=O)N2CCCC2C(=O)NCc2ccncc2)cc1 (stereo not drawn),inactive,
O=C(c1ccc(Cl)c([N+](=O)[O-])c1)N1CCN(c2ccccc2)CC1,inactive,
COc1ccc(C2=CC(=O)N(Nc3ccccc3)C2=O)cc1,inactive,
COc1ccc(OCC(=O)NNC(=S)NC(=O)C2CCCCC2)cc1,inactive,
CCOc1ccc(C(Nc2cccnc2)c2cc(Cl)c3cccnc3c2O)cc1 (stereo not drawn),inactive,

SMILES,"GFP fluorescence, higher = induction",EC50 (flow cytometry fluorescence) [µM]
O=C(/C=C/c1ccc(Cl)c([N+](=O)[O-])c1)c1cccnc1,inactive,
Cc1ccc(C(CC(=O)O)NC(=O)c2ccc(S(=O)(=O)N3CC(C)OC(C)C3)cc2)cc1 (stereo not drawn),inactive,
CCC1(c2ccccc2)ON(c2c(Br)cccc2Br)C1=O (stereo not drawn),inactive,
CC(=O)[C@]1(O)Cc2c(O)c3c(c(O)c2[C@@H](O[C@H]2C[C@H](N)[C@H](O)[C@H](C)O2)C1)C(=O)c1ccccc1C3=O,inactive,
Cc1ccc2nc(/C(C#N)=C/c3ccc(O)c(O)c3)[nH]c2c1,inactive,
CCC(=O)Nc1ccc(NC(=O)c2cc3ccccc3o2)cc1,inactive,
Oc1c(CN2CCN(c3ccc(F)cc3)CC2)cc(Cl)c2cccnc12,inactive,
Cc1ccc(N/N=C(\C#N)C(N)=S)c(C)c1,inactive,
CCc1ccc(OCC(=O)NNC(=S)NC(=O)C2CC2)c(Br)c1,inactive,
CCOc1ccc(NC2=C(Cl)C(=O)N(Cc3ccccc3)C2=O)cc1,inactive,
O=C(O)c1ccn2c(C(=O)c3ccccc3)c(-c3ccccc3)cc2c1,inactive,
O=C1/C(=C\c2ccc(O)c(O)c2)SC(=S)N1Cc1ccccc1,inactive,
Nc1ccccc1C#CC(=O)c1ccccc1,inactive,
O=C(NC(=S)Nc1ccc2oc(=O)ccc2c1)c1cccc(Cl)c1,inactive,
COc1ccccc1[C@]1(C)ON(c2ccccc2C(F)(F)F)C1=O,inactive,
Cc1nn2c(NCc3ccccn3)c3c(nc2c1-c1ccccc1)CCC3,inactive,
CN1C(=O)/C(=N\OC(=O)c2cccc3ccccc23)c2ccccc21,inactive,
Oc1c(C(Nc2nc3ccccc3s2)c2ccco2)ccc2cccnc12 (stereo not drawn),inactive,
COc1ccc(NC(=O)/C(C#N)=C/c2ncc([N+](=O)[O-])n2C)c(OC)c1,inactive,
COc1cc(N=c2ssnc2Cl)cc(OC)c1,inactive,
O=C1C=CC(=O)N1N(c1ccccc1)c1ccccc1,inactive,
O=C(O)c1ccc(COc2ccccc2C=C2C(=O)c3ccccc3C2=O)cc1,inactive,
O=[N+]([O-])c1ccc(N=Nc2c(Cl)cc(O)cc2Cl)cc1,inactive,

SMILES,"GFP fluorescence, higher = induction",EC50 (flow cytometry fluorescence) [µM]
O=C(OCC(=O)N1CCN(C(=O)c2ccco2)CC1)c1cc(-c2ccc(Cl)c(Cl)c2Cl)nc2ccccc12,inactive,
O=[N+]([O-])c1cc(O)c2ncccc2c1,inactive,
CC(=O)Oc1ccc(N2C(=O)C3C4C=CC(O4)C3C2=O)cc1 (stereo not drawn),inactive,
Cc1cc(C)c(C)c(S(=O)(=O)ON2C(=O)c3ccccc3C2=O)c1C,inactive,
CNC(CC(=O)c1ccc([N+](=O)[O-])cc1)C(Cl)(Cl)Cl (stereo not drawn),inactive,
Cc1cc(/C=C2/SC(=S)N(c3cccc(Cl)c3)C2=O)c(C)n1-c1cccnc1,inactive,
COc1cccc(C(=O)Nc2nnc(-c3ccc(Cl)cc3)o2)c1,inactive,
Cc1ccc2c(c1)c(/C=C/c1cc[n+](C)cc1)c(C)n2C,inactive,
C=CCOc1cccc(C(=O)/C=C2/C(=O)Nc3ccccc32)c1,inactive,
O=c1c(-c2ccc(Cl)cc2)[n+]([O-])c2ccccc2n1O,inactive,
O=C(c1ccccn1)c1conc1C(=O)c1ccc(Br)cc1,inactive,
Cc1ccc(S(=O)(=O)/N=C(\Sc2ccccc2)c2ccccc2)cc1,inactive,
O=C(c1ccccc1)c1ccccc1N1C(=O)C=CC1=O,inactive,
CCCc1cc(=O)oc2cc(C)cc(OCC(=O)NC3CC3)c12,inactive,
Cc1[nH]n(-c2ccccc2)c(=O)c1C(c1ccccc1[N+](=O)[O-])C(C#N)C#N (stereo not drawn),inactive,
N/C(=N\OC(=O)c1ccc(Cl)cc1Cl)c1ccccc1,,4.16
Cn1ncc2c(O/N=C(\N)c3ccc(C(C)(C)C)cc3)ncnc21,inactive,
Cn1ncc(S(=O)(=O)Cc2ccccc2)c(Cl)c1=O,inactive,
CCOC(=O)c1ccc(N=Cc2nc(-c3ccccc3)oc2OC(C)=O)cc1,inactive,
O=C(Oc1c(Cl)cc(Cl)c2cccnc12)c1cccc([N+](=O)[O-])c1,inactive,
Cc1ccc(N2C(=O)CC(Sc3ncn[nH]3)C2=O)cc1C (stereo not drawn),inactive,
Cn1c(=O)c(C(=O)NNC(=O)c2ccc(Br)cc2)c(O)c2ccccc21,inactive,
